Here are results for 2 molecules from patent publication US20260257992A1, “AGONISTS OF SMALL HETERODIMER PARTNER FOR CANCER THERAPY” (THE BOARD OF TRUSTEES OF THE UNIVERSITY OF ILLINOIS, priority 2023, published 2026).

The subject of one assay is E0771 tumors. The experiment in a line: Orthotopic syngeneic E0771 mammary tumor growth. Type of assay: in vivo, mouse. The source says:
FIG. 3A-3F. DSHN, a tool small molecule agonist of NR0B2 reduces macrophage/dendritic cell induced Treg expansion and tumor growth in murine models. […] (B) Dendritic cells (left-CD11B^+; CD11C^+) and CD4^+ T cells (right) were isolated from MMTV-PyMT tumors by FACS, and treated with vehicle or DSHN for 3d. The resulting frequency of Treg (CD4^+; CD25^+; FoxP3^+) was quantified by flow cytometry (right graph), (N=3-5/group, t test). […] The percentage of divided CD8+ T cells in the second round was quantified. (D) DSHN increases efficacy of αPDL1 therapy on orthotopic E0771 tumors. An optimal number of E0771 cells were grafted into FoxP3-EGFP mice and allowed to grow until tumors reached 100 mm^3. Mice were euthanized on day 19 (waterfall plot, Fisher's exact test). (E) DSHN increases efficacy of αPDL1 therapy on orthotopic 4T1 tumors. 4T1 cells were orthotopically grafted into mice and allowed to establish for 5d prior to treatment start. Mice were euthanized on day 16 (waterfall plot, Fisher's exact test). (F) DSHN reduces metastatic outgrowth of 4T1 tumors and enhances efficacy of αPDL1 compared to placebo (p) (2-way ANOVA followed by Šidák's multiple comparison test for day 16). 4T1 cells were grafted intravenously, and lung metastatic lesions allowed to establish for 3d before treatment commenced. At the end of the study, lungs were removed and imaged ex vivo, quantified data indicated (N=10, 1-way ANOVA followed by Newman-Keuls multiple comparison test). Representative luciferase images shown to the right. * or different letters denote P<0.05 using indicated statistical test.
FIG. 7A-7I. DSHN-OMe reduces tumor and metastatic growth in murine models, in a myeloid cell-NR0B2 dependent manner. (A) E0771 cells were grafted into control mice (NR0B2^+/+; LysMCre^+) or mice where NR0B2 was knocked out in myeloid immune cells (NR0B2^fl/fl; LysMCre^+). […] (G) EMT6 metastatic lungs were assessed for Ki67 mRNA and (H) FOXP3 mRNA. (I) EMT6 metastatic lungs were assessed for CD8+ cytotoxic T cells (CD8+). […]

A further assay has as its system Treg expansion. The experiment in a line: Treg expansion in co-culture with compound-treated BMDMs (macrophages). Set-up: key to Treg expansion macrophages: ✓: using strict cutoffs with respect to DSHN for passing each metric; X: using strict cutoffs with respect to DSHN for passing each metric. Conditions: for Treg expansion after BMDM pretreatment and washout: BMDMs pretreated, washed before co-culture with T cells; for Treg expansion, co-culture with treated BMDMs: dose response. Type of assay: cell-based, mouse. The procedure: Preparation of Bone Marrow-Derived Macrophages (BMDMs) and Dendritic Cells. Bone marrow cells were collected from mouse tibia and femur. Cells were passed through 70-micron cell strainer and subsequently cultured 10 mL complete RPMI media supplemented with 20 ng/mL of recombinant murine M-CSF (576406; BioLegend, 315-02 PeproTech). On day 3, additional 5 ml of the complete media was added. On day 7, media was replaced. BMDMs were harvested on day 10 using cell stripper solution for further experiments. Dendritic cells were isolated from the spleens of wildtype, using mouse CD11c UltraPure MicroBeads (130-125-835; Miltenyi Biotec) according to the manufacturer's instructions) and cultured in RPMI medium supplemented with 10% heat-inactivated charcoal-stripped FBS, 50 μM β-mercaptoethanol, 1% sodium pyruvate, 1% nonessential amino acids, % penicillin/streptomycin, and 1% Glutamax.
In vitro Treg expansion assays. T cells were cultured in RPMI medium supplemented with 10% heat-inactivated charcoal-stripped FBS, 50 μM β-mercaptoethanol (Gibco), 1% sodium pyruvate, 1% nonessential amino acids, % penicillin/streptomycin, and 1% Glutamax (Gibco). Naïve CD4^+ T cells were isolated from the spleens of wildtype and OT-II, using Naive CD4^+ T Cell Isolation Kit (Miltenyi Biotec according to the manufacturer's instructions). T cells were labeled with the vital dye CFSE (BioLegend) or Cell Trace Violet (ThermoFisher) according to the manufacturer's instructions. For wildtype Treg expansion in presence of antigen presenting cells, naïve CD4^+ T cells were co-cultured with APC at indicated ratio in the presence of 0.5 μg/mL (anti-CD3 BioLegend), 0.5 ng/mL TGFβ (BioLegend) and 0.5 ng/ml IL-2 (BioLegend) for 72 hr at 37° C. For OT-II Treg expansion, OTII naïve CD4^+ T cells from OT-II mice were activated by antigen presentation by culturing BMDMs were primed with 10 μg/mL OVA323-339 (Bachem) and 0.5 μg/mL LPS (Sigma). naïve CD4+ T cells from OTII mice were co-cultured with primed APC at indicated ratio for 72 hrs. After 72 hrs of culture, cells were transferred into V-bottom plates (BD), pelleted by centrifugation and incubated with antibody staining mix containing Ghost Dye™ Red 780 viability dye diluted in PBS for 15 minutes at 4° C. Cell surface antigens were stained for 15 minutes at 4° C. with an antibody staining mix containing Ghost Dye™ Red 780 viability dye diluted in PBS. Cells were fixed and permeabilized with BD Cytofix/Cytoperm™ for 20 minutes at 4° C. Antibodies against intracellular antigens were diluted in 1×BD Perm/Wash™ buffer and cells were stained for 30 minutes at 4° C. Cytometry data were acquired on a LSRII, Fortessa, Symphony A1 (Becton Dickinson, NJ). Foxp3 induction was assessed by expression of FOXP3.

Each structure is given as a SMILES string.

In the case of `CCN(CC)S(=O)(=O)c1cccc2cc(C(=O)O)c(O)cc12` [DSHN, reference compound], the “Growth of established E0771 tumors, combined with αPDL1” value with E0771 tumors (DSHN combined with αPDL1) is “decreased growth”. For the same molecule, in the assay with Treg expansion, the “Treg expansion after BMDM pretreatment and washout” value is on record as “not effective at reducing Treg expansion”; the “Treg expansion, co-culture with treated BMDMs” value is recorded as “reduced subsequent Treg expansion in a dose related manner”.
For `CCN(CC)S(=O)(=O)c1cccc2cc(C(=O)OC)c(O)cc12` [DSHN-OMe, Methyl 5-(N,N-diethylsulfamoyl)-3-hydroxy-2-naphthoate], in the assay with E0771 tumors (NR0B2fl/fl, LysMCre+ mice), the “E0771 tumor growth, myeloid NR0B2 knockout” value is on record as “no significant impact”. Further, the E0771 tumor growth result with E0771 tumors (control NR0B2+/+, LysMCre+ mice, daily treatment from day 8) was “significantly reduced E0771 tumor growth”. In addition, in the assay with Treg expansion, the “Treg expansion after BMDM pretreatment and washout” value is “decreased Treg expansion”; the “Treg expansion, co-culture with treated BMDMs” value is “elicited a reduction in Treg expansion with a lower dose, and had a larger biological maximum”. The Treg expansion macrophages entry in the assay on Treg expansion (pass/fail with respect to DSHN) is recorded as “✓”.
